Data reported in US4824860A, “Treatment of Parkinsons disease” (priority 1987, dated 1989).

Assays:
[1] = Anti-depressant activity in the mouse using the Porsolt test (test 8); type: in vivo; details: mice
Source text: 8. Measurement of anti-depressant activity in the mouse using the `Porsolt Test`.

[2] = Anxiolytic activity in the mouse using a black and white test box (test 9); type: in vivo
Source text: 9. Anxiolytic activity in the mouse using a black and white test box.

MPTP-treated marmoset = MPTP-treated marmoset model of anti-Parkinson activity (test 10); type: in vivo
Source text: 10. MPTP-treated marmoset model. A test for anti-Parkinson activity.
(i) Parkinsonism-like motor deficits (hypokinesia and bradykinesia) were induced in marmosets by the intranigral infusion of 1-methyl-4-phenyl-1,2,3,6-tetrahydropyridine (MPTP) for 13 days via an implanted injection unit and osmotic minipump (Test 10). […] Drug assessments were begun after 7-10 days of infusion.

5HT1 receptors = assay: Receptor binding studies using rat brain: 5HT1
[3] = Mouse spontaneous locomotor activity using individual cages equipped with photocells (test 1); type: in vivo; details: for dose profile of effect on locomotor activity: 'in these tests' (locomotor tests 1-3), inhibition at low, stimulation at high dose
Source text: 1. Mouse spontaneous locomotor activity using individual cages equipped with photocells.

[4] = Measurement of stereotyped behaviour in the mouse (test 4); type: in vivo
Source text: 4. Measurement of stereotyped behaviour in the mouse.

[5] = Rat spontaneous locomotor activity using photocell cages: measurement of stereotypy (test 5); type: in vivo
Source text: 5. Rat spontaneous locomotor activity using individual cages equipped with photocells: measurement of stereotypy.

[6] = Asymmetry and circling after unilateral administration into the extrapyramidal caudate-putamen (striatum) (test 7); type: in vivo, rat
Source text: 7. Effect on observed locomotor activity following direct administration into the extrapyramidal caudate-putamen (striatum). A test for anti-Parkinsonism potential.

[7] = Mouse spontaneous locomotor activity using treadwheels (test 2); type: in vivo
Source text: 2. Mouse spontaneous locomotor activity using treadwheels.

[8] = Mouse spontaneous locomotor activity measuring climbing frame behaviour (test 3); type: in vivo
Source text: 3. Mouse spontaneous locomotor activity measuring climbing frame behaviour.

[9] = Hyperactivity following direct administration into the mesolimbic nucleus accumbens of the rat (test 6); type: in vivo
Source text: 6. Measurement of hyperactivity following direct administration into the mesolimbic nucleus accumbens of the rat. An indicator of anti-depressant activity.
Enhancement of locomotor activity by amphetamine and other dopamine agonists is difficult to measure because it is complicated by the development of stereotypies. […] Direct action of a compound to cause hyperactivity following administration into the mesolimbic nucleus accumbens is considered to be indicative of anti-depressant activity.

dopamine D1 receptors = assay: Receptor binding studies using rat brain: dopamine D1
[10] = 0.1-1 mg/kg i.p., separate study
[11] = 10 μg injected directly into the mesolimbic nucleus accumbens
[12] = 0.05 mg/kg s.c., mean n=4, P<0.05
[13] = 0.05 mg/kg s.c., mean of responding animals only
[14] = 0.1 mg/kg s.c., mean n=4, P<0.01
[15] = 1.0 mg/kg s.c., mean n=4, P<0.01

Q: Which swimming time ([1]; 0.1-1 mg/kg i.p., effect at the higher dose) does the source give for `CC(C)C[C@H]1C(=O)N2CCC[C@H]2[C@]2(O)O[C@](NC(=O)[C@@H]3C=C4c5cccc6[nH]c(Br)c(c56)C[C@H]4N(C)C3)(C(C)C)C(=O)N12` [bromocriptine, reference compound] here?
A: Its swimming time is “statistically significant reduction in swimming time”.

Q: What about the “investigatory activity in the black area” value [2, 10] of the same molecule?
A: Its value is “statistically significant increase in investigatory activity in the black area”.

Q: What about the light aversion [2, 10] of the same molecule?
A: The light aversion was “no change in the light aversion”.

Q: And the MPTP-induced motor deficits (MPTP-treated marmoset; 0.1 mg/kg s.c.)?
A: The MPTP-induced motor deficits was “little effect”.

Q: What about the “affinity for 5HT1 receptors” value (5HT1 receptors) of the same molecule?
A: Its value is “showed affinity”.

Q: Which results are given for `CN1CCc2cccc3c2[C@H]1Cc1ccc(O)c(O)c1-3` [apomorphine, reference compound]?
A: dose profile of effect on locomotor activity [3]: biphasic activity; stereotypy ([4]; mouse, 2.0 mg/kg s.c., continuous biting, gnawing and licking): marked stereotyped behaviour; stereotypy ([5]; rat, 2.0 mg/kg s.c., continuous biting, gnawing and licking): marked stereotyped behaviour; asymmetry and circling behaviour ([6]; up to 50 μg unilaterally into caudate-putamen): inactive

Q: With `N[C@@H](Cc1ccc(O)c(O)c1)C(=O)O` [L-DOPA, reference compound] as the molecule, how does the MPTP-induced motor deficits (MPTP-treated marmoset; 12.5 mg/kg i.p. 30 min. pretreatment, after benserazide 12.5 mg/kg s.c. 90 min. pretreatment) read?
A: Its MPTP-induced motor deficits is “restored MPTP-induced motor deficits”.

Q: And the “effectiveness compared with Compound A” value (MPTP-treated marmoset; L-DOPA 12.5 mg/kg i.p. after benserazide 12.5 mg/kg s.c., versus 0.1 mg/kg s.c. Compound A)?
A: The value was “less effective than 0.1 mg/kg s.c. Compound A”.

Q: Which spontaneous locomotor activity ([3]; photocell cages, 1.0 and 10.0 mg/kg i.p., statistically significant (P<0.01-0.001) at 10 mg/kg) does the source give for `CCCN(CCC)CCc1cccc2c1CC(=O)N2.Cl` [Compound A, 4-(2-di-n-propylaminoethyl)-2-(3H)-indolone hydrochloride] here?
A: The spontaneous locomotor activity was “inhibition of spontaneous locomotor activity”.

Q: What about the locomotor activity ([3]; photocell test, 100 mg/kg, P<0.001) of the same molecule?
A: Its locomotor activity is “Stimulation of locomotor activity”.

Q: And the locomotor activity ([7]; treadwheel test, 100 mg/kg, P<0.001)?
A: Its locomotor activity is “Stimulation of locomotor activity”.

Q: What about the spontaneous locomotor activity ([7]; treadwheels, 1.0 and 10.0 mg/kg i.p.) of the same molecule?
A: Its spontaneous locomotor activity is “inhibition of spontaneous locomotor activity”.

Q: What about the locomotor activity ([8]; 100 mg/kg, no stimulation) of the same molecule?
A: Its locomotor activity is “original inhibition was reversed”.

Q: And the spontaneous locomotor activity ([8]; 1.0 and 10.0 mg/kg i.p., statistically significant at 1.0 mg/kg)?
A: The spontaneous locomotor activity was “inhibition of spontaneous locomotor activity”.

Q: And the stereotypy ([4]; mouse, 1.0, 10.0 and 100 mg/kg i.p., only periodic sniffing)?
A: Its stereotypy is “no dose dependent stereotypies”.

Q: What about the stereotypy ([5]; rat, 1.0, 10.0 and 100 mg/kg i.p., only periodic sniffing) of the same molecule?
A: Its stereotypy is “no dose dependent stereotypies”.

Q: And the spontaneous locomotion ([5]; rat, 10.0 and 100.0 mg/kg i.p., P<0.001)?
A: The spontaneous locomotion was “dose-related increases in spontaneous locomotion”.

Q: And the “duration of increase in spontaneous locomotion” value ([5]; rat, higher dose (100.0 mg/kg i.p.))?
A: The value was over 2.5 h.

Q: And the spontaneous locomotion ([9]; 1.0 μg into the nucleus accumbens, tendency to inhibition in first 10 minutes)?
A: Its spontaneous locomotion is “ineffective”.

Q: And the spontaneous locomotion [9, 11]?
A: Its spontaneous locomotion is “marked (P<0.001) increase in spontaneous locomotion”.

Q: What about the “asymmetry and circling behaviour” value ([6]; 0.01-10.0 μg unilaterally into caudate-putamen, statistically significant at 1.0 and 10.0 μg) of the same molecule?
A: The value was “marked contralateral asymmetry and circling behaviour”.

Q: What about the anti-depressant activity ([1]; 0.1-10 mg/kg i/p.) of the same molecule?
A: Its anti-depressant activity is “statistically significant (P<0.05) anti-depressant activity”.

Q: And the “anti-depressant activity compared with amitriptyline” value ([1]; amitriptyline 2.4-40 mg/kg i.p.)?
A: The value was “greater than amitriptyline”.

Q: And the “period in the black area” value ([2]; 0.1-10 mg/kg i.p.)?
A: The value was “correspondingly reduced period in the black area”.

Q: What about the “time spent in the white section” value ([2]; 0.1-10 mg/kg i.p.) of the same molecule?
A: Its value is “statistically significant increase in the time spent in the white section”.

Q: What about the “% time in head movements” value (MPTP-treated marmoset; 0.01 mg/kg s.c., mean n=4) of the same molecule?
A: Its value is 26%.

Q: And the “% time spent in LMA” value (MPTP-treated marmoset; 0.01 mg/kg s.c., mean n=4)?
A: Its value is 4%.

Q: What about the “LMA (% control)” value (MPTP-treated marmoset; 0.01 mg/kg s.c., mean n=4) of the same molecule?
A: Its value is 26 % control.

Q: And the “% time in head movements” value (MPTP-treated marmoset; [12])?
A: Its value is 36%.

Q: What about the “% time spent in LMA” value (MPTP-treated marmoset; [12]) of the same molecule?
A: Its value is 12%.

Q: What about the “LMA (% control)” value (MPTP-treated marmoset; [12]) of the same molecule?
A: The value was 47 % control.

Q: And the “% time in head movements” value (MPTP-treated marmoset; [13])?
A: The value was 80%.

Q: And the “% time spent in LMA” value (MPTP-treated marmoset; [13])?
A: The value was 23%.

Q: What about the “LMA (% control)” value (MPTP-treated marmoset; [13]) of the same molecule?
A: Its value is 70 % control.

Q: What about the “% time in head movements” value (MPTP-treated marmoset; [14]) of the same molecule?
A: Its value is 83%.

Q: What about the “% time spent in LMA” value (MPTP-treated marmoset; [14]) of the same molecule?
A: The value was 29%.

Q: What about the “LMA (% control)” value (MPTP-treated marmoset; [14]) of the same molecule?
A: The value was 93 % control.

Q: And the “% time in head movements” value (MPTP-treated marmoset; [15])?
A: The value was 84%.

Q: What about the “% time spent in LMA” value (MPTP-treated marmoset; [15]) of the same molecule?
A: The value was 28%.

Q: And the “LMA (% control)” value (MPTP-treated marmoset; [15])?
A: The value was 103 % control.

Q: What about the development of tolerance (MPTP-treated marmoset; 0.1, 1.0 mg/kg s.c. twice daily for 7 days) of the same molecule?
A: Its development of tolerance is “no development of tolerance”.

Q: What about the motor behaviour (MPTP-treated marmoset; MPTP marmosets, 0.05-1.0 mg/kg s.c., at 0.05 mg/kg 1 or 2 marmosets did not respond) of the same molecule?
A: Its motor behaviour is “fully restored normal motor behaviour”.

Q: And the “movements in the limbs, trunk, head and neck” value (MPTP-treated marmoset; MPTP marmosets, s.c., most marked effect)?
A: The value was “full restoration of normal movements”.

Q: And the MPTP-induced motor deficits (MPTP-treated marmoset; oral, each of 0.1, 0.5 or 1.0 mg/kg, seven listed motor deficits)?
A: Its MPTP-induced motor deficits is “Partial reversal”.

Q: And the response (MPTP-treated marmoset; oral, highest dose 1.0 mg/kg, n=3)?
A: Its response is “supramaximal”.

Q: What about the response (MPTP-treated marmoset; oral, lowest dose 0.1 mg/kg, n=2) of the same molecule?
A: Its response is “submaximal”.

Q: What about the emesis (MPTP-treated marmoset; oral, the two lower doses (0.1, 0.5 mg/kg)) of the same molecule?
A: Its emesis is “No emesis”.

Q: Which results are given for `CCCN1C[C@H](CSC)C[C@@H]2c3cccc4[nH]cc(c34)C[C@H]21` [pergolide]?
A: affinity for 5HT1 receptors (5HT1 receptors): showed affinity; affinity for dopamine D1 receptors (dopamine D1 receptors): bound to dopamine D1 receptors

Q: For `CC(N)Cc1ccccc1` (stereo not drawn) [amphetamine, reference compound], which “dose profile of effect on locomotor activity” value [3] is on record?
A: Its value is “biphasic activity”.

Q: And the stereotypy ([4]; mouse, doses up to 10.0 mg/kg i.p., continuous biting, gnawing and licking)?
A: Its stereotypy is “marked stereotyped behaviour”.

Q: And the stereotypy ([5]; rat, doses up to 10.0 mg/kg i.p., continuous biting, gnawing and licking)?
A: Its stereotypy is “marked stereotyped behaviour”.

Q: And the spontaneous locomotion [9, 11]?
A: The spontaneous locomotion was “equally effective”.

Q: And the “asymmetry and circling behaviour” value ([6]; up to 100 μg unilaterally into caudate-putamen)?
A: The value was “inactive”.
